Literature values, collected in patent US20230172203A1, “PLANT METABOLISM PROMOTING COMPOSITIONS AND METHODS OF USE” (Panoptic Ag Solutions LLC, priority 2021, published 2023).

Tested on: tea plants
Conditions: exogenous application; background statement; cited from earlier work

CNC(=O)CC[C@H](N)C(=O)O [γ-glutamylmethylamide]
quality and yield of tea plants (in words): can improve the quality and yield of tea plants by increasing the number of usable leaves
